Converted amounts (≈) assume the structure as drawn. Each block holds one compound with its values, some of them ahead of it.
How the values were obtained:
Rattus norvegicus [1] = assay: Anticoagulant activity in Sprague-Dawley rat deep vein thrombosis model assessed as activated partial thromboplastin time change at 0.125 mg/kg, iv administered as bolus and 5 ug/kg/min administered as infusion relative to control; format: functional
Trypsin = Trypsin (Homo sapiens, UniProt P07477+P07478+P35030); assay: Inhibition of human trypsin; format: protein assay
Rattus norvegicus [2] = assay: Anticoagulant activity in Sprague-Dawley rat deep vein thrombosis model assessed as activated partial thromboplastin time change at 0.25 mg/kg, iv administered as bolus and 10 ug/kg/min administered as infusion relative to control; format: functional
[3] = target: Tissue-type plasminogen activator (Homo sapiens, UniProt P00750); assay: Inhibition of human t-PA
Sequence of Tissue-type plasminogen activator (P00750 whole entry, the tested form may be a part): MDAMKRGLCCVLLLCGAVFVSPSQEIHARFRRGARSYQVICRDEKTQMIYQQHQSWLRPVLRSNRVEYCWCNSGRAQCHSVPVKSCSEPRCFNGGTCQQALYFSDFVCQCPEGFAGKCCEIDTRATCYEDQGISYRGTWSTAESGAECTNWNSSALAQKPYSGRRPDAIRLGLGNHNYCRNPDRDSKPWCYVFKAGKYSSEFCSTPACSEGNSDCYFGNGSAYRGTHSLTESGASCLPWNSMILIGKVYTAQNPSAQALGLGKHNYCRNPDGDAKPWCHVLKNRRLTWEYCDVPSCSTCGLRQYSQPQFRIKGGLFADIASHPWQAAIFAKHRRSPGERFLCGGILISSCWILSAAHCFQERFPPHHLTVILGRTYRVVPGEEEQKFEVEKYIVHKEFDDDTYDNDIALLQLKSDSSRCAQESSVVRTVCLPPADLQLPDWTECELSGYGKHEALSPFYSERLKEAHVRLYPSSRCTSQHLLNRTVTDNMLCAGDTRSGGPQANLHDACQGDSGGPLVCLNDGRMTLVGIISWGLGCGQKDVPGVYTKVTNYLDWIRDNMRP

Rattus norvegicus [4] = assay: Anticoagulant activity in Sprague-Dawley rat deep vein thrombosis model assessed as prothrombin time change at 0.044 mg/kg, iv administered as bolus and 1.75 ug/kg/min administered as infusion relative to control; format: functional
Rattus norvegicus [5] = assay: Anticoagulant activity in Sprague-Dawley rat deep vein thrombosis model assessed as prothrombin time change at 0.125 mg/kg, iv administered as bolus and 5 ug/kg/min administered as infusion relative to control; format: functional
Rattus norvegicus [6] = assay: Anticoagulant activity in Sprague-Dawley rat deep vein thrombosis model assessed as wet clot weight at 0.044 mg/kg, iv administered as bolus and 1.75 ug/kg/min administered as infusion (reference value: 83 +/- 5.1 mg); format: functional
Rattus norvegicus [7] = assay: Anticoagulant activity in Sprague-Dawley rat deep vein thrombosis model assessed as activated partial thromboplastin time change at 0.044 mg/kg, iv administered as bolus and 1.75 ug/kg/min administered as infusion relative to control; format: functional
Plasminogen = Plasminogen (Homo sapiens, UniProt P00747); assay: Inhibition of human plasmin
Sequence of Plasminogen (P00747 97-580 limits assumed): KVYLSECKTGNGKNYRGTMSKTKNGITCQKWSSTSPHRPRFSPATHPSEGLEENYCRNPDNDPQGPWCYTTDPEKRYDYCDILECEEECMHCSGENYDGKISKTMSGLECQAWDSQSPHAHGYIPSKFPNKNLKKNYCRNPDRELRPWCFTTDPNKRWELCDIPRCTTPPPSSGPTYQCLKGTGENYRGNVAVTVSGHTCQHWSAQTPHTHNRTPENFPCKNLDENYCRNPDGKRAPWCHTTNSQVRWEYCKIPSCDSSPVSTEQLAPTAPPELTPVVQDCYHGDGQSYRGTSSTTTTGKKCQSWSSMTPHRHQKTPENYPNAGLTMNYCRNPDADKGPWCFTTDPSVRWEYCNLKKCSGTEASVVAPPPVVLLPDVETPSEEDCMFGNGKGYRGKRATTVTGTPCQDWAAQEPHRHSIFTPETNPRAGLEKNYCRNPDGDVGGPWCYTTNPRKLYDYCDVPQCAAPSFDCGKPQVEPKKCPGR
Sequence of Plasminogen (P00747 581-810 limits assumed): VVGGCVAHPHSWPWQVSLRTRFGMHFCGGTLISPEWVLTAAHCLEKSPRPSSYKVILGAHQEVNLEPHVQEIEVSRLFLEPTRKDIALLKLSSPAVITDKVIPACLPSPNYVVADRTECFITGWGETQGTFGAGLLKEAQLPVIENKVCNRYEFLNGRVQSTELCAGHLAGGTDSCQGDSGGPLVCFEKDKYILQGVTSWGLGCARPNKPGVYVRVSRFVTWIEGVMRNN

[8] = Plasma protein binding in human at 1 ug/ml by ultra-filtration method; format: ADME, cell-free; settings: read-out: PPB (converted)
Rattus norvegicus [9] = assay: Anticoagulant activity in Sprague-Dawley rat deep vein thrombosis model assessed as activated partial thromboplastin time change at 0.025 mg/kg, iv administered as bolus and 1 ug/kg/min administered as infusion relative to control; format: functional
Coagulation factor X = Coagulation factor X (Homo sapiens, UniProt P00742); assay: Inhibition of human factor 10a
Sequence of Coagulation factor X (P00742 41-179 limits assumed): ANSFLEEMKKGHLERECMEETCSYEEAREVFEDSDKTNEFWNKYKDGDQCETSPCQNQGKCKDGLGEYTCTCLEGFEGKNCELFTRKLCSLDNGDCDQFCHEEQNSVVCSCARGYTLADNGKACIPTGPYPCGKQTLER
Sequence of Coagulation factor X (P00742 235-488 limits assumed): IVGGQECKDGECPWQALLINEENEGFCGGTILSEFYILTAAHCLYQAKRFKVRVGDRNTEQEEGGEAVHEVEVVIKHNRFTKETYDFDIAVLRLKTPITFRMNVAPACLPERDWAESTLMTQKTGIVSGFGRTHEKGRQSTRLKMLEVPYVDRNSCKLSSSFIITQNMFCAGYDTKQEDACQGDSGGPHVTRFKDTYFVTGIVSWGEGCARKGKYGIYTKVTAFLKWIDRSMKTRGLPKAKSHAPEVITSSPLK

[10] = Plasma protein binding in rat at 1 ug/ml by ultra-filtration method; format: ADME, cell-free; settings: read-out: PPB (converted)
Rattus norvegicus [11] = assay: Anticoagulant activity in Sprague-Dawley rat deep vein thrombosis model assessed as wet clot weight at […], iv administered as bolus and 2.5 ug/kg/min administered as infusion (reference value: 83 +/- 5.1 mg); format: functional
Rattus norvegicus [12] = assay: Anticoagulant activity in Sprague-Dawley rat deep vein thrombosis model assessed as prothrombin time change at […], iv administered as bolus and 2.5 ug/kg/min administered as infusion relative to control; format: functional
Rattus norvegicus [13] = assay: Anticoagulant activity in Sprague-Dawley rat deep vein thrombosis model assessed as prothrombin time change at 0.25 mg/kg, iv administered as bolus and 10 ug/kg/min administered as infusion relative to control; format: functional
Rattus norvegicus [14] = assay: Anticoagulant activity in Sprague-Dawley rat deep vein thrombosis model assessed as prothrombin time change at 0.025 mg/kg, iv administered as bolus and 1 ug/kg/min administered as infusion relative to control; format: functional
Rattus norvegicus [15] = assay: Anticoagulant activity in Sprague-Dawley rat deep vein thrombosis model assessed as reduction in wet clot weight at 35 ug/kg, iv administered as infusion; format: functional
Rattus norvegicus [16] = assay: Anticoagulant activity in Sprague-Dawley rat deep vein thrombosis model assessed as reduction in wet clot weight administered as iv bolus followed by infusion relative to control; format: functional, organism-based
Rattus norvegicus [17] = assay: Anticoagulant activity in Sprague-Dawley rat deep vein thrombosis model assessed as activated partial thromboplastin time change at […], iv administered as bolus and 2.5 ug/kg/min administered as infusion relative to control; format: functional
Rattus norvegicus [18] = assay: Anticoagulant activity in Sprague-Dawley rat deep vein thrombosis model assessed as wet clot weight at 0.125 mg/kg, iv administered as bolus and 5 ug/kg/min administered as infusion (reference value: 83 +/- 5.1 mg); format: functional
[19] = Dissociation constant, pKa of the compound by potentiometric titration; format: physicochemical
[20] = Distribution coefficient, log D of the compound at pH 7 by potentiometric titration; format: physicochemical; settings: octanol/water
[21] = Aqueous solubility of the compound at pH 7.4; format: physicochemical; settings: aqueous solution
[22] = Aqueous solubility of the compound at pH 9.0; format: physicochemical; settings: aqueous solution
[23] = Aqueous solubility of the compound at pH 6.3; format: physicochemical; settings: aqueous solution
Rattus norvegicus [24] = assay: Cmax in Sprague-Dawley rat at 30 mg/kg, po assessed as LB30887; format: ADME, organism-based; set-up: dose 30 mg/kg, route oral; settings: in vivo
Canis familiaris [25] = assay: Oral bioavailability in Beagle dog at 10 mg/kg assessed as LB30870; format: ADME, organism-based, Canis lupus familiaris; settings: in vivo
Canis familiaris [26] = assay: Cmax in Beagle dog at 10 mg/kg, po assessed as LB30870; format: ADME, organism-based, Canis lupus familiaris; set-up: dose 10 mg/kg, route oral; settings: in vivo
Rattus norvegicus [27] = assay: AUC in Sprague-Dawley rat at 30 mg/kg, po assessed as LB30870; format: ADME, organism-based, Plasma; set-up: dose 30 mg/kg, route oral; settings: in vivo
Canis familiaris [28] = assay: AUC in Beagle dog at 10 mg/kg, po assessed as LB30887; format: ADME, organism-based, Canis lupus familiaris, Plasma; set-up: dose 10 mg/kg, route oral; settings: in vivo
[29] = Aqueous solubility of the compound at pH 6.96; format: physicochemical; settings: aqueous solution
[30] = Aqueous solubility of the compound at pH 4.73; format: physicochemical; settings: aqueous solution
Rattus norvegicus [31] = assay: AUC in Sprague-Dawley rat at 30 mg/kg, po assessed as LB30887; format: ADME, organism-based, Plasma; set-up: dose 30 mg/kg, route oral; settings: in vivo
Canis familiaris [32] = assay: AUC in Beagle dog at 10 mg/kg, po assessed as LB30870; format: ADME, organism-based, Canis lupus familiaris, Plasma; set-up: dose 10 mg/kg, route oral; settings: in vivo
Canis familiaris [33] = assay: Cmax in Beagle dog at 10 mg/kg, po assessed as LB30887; format: ADME, organism-based, Canis lupus familiaris; set-up: dose 10 mg/kg, route oral; settings: in vivo
Rattus norvegicus [34] = assay: Cmax in Sprague-Dawley rat at 30 mg/kg, po assessed as LB30870; format: ADME, organism-based; set-up: dose 30 mg/kg, route oral; settings: in vivo
Rattus norvegicus [35] = assay: Oral bioavailability in Sprague-Dawley rat at 30 mg/kg assessed as LB30870; format: ADME, organism-based; settings: in vivo
[36] = Aqueous solubility of the compound at pH 3.04; format: physicochemical; settings: aqueous solution

Compound: N=C(N)c1ccc(CNC(=O)[C@@H]2CCN2C(=O)[C@H](NCC(=O)O)C2CCCCC2)cc1
fold change (FC) (Rattus norvegicus [1]): 3.95
Ki (Trypsin): 0.0043 µM
fold change (FC) (Rattus norvegicus [2]): 6.05
Ki [3]: 1.51 µM
fold change (FC) (Rattus norvegicus [4]): 1.42
fold change (FC) (Rattus norvegicus [5]): 2.72
Activity (Rattus norvegicus [6]): 25.6 mg
fold change (FC) (Rattus norvegicus [7]): 1.98
Ki (Plasminogen): 1.8 µM
fraction unbound at 1 ug/ml [8]: 0.847
fold change (FC) (Rattus norvegicus [9]): 1.67
Ki (Coagulation factor X): 3.68 µM
fraction unbound at 1 ug/ml [10]: 0.9
Activity (Rattus norvegicus [11]): 15.9 mg
fold change (FC) (Rattus norvegicus [12]): 1.46
fold change (FC) (Rattus norvegicus [13]): 3.66
fold change (FC) (Rattus norvegicus [14]): 1.13
ED50 (Rattus norvegicus [15]): 1.4 µg/kg/min
Activity (Rattus norvegicus [16]): Dose-dependent effect
fold change (FC) (Rattus norvegicus [17]): 1.83
Activity (Rattus norvegicus [18]): 3.6 mg

pKa [19]: 4.73
logD [20]: 0.41
Compound: CCOC(=O)CN[C@@H](C(=O)N1CC[C@H]1C(=O)NCc1ccc(/C(N)=N\O)cc1)C1CCCCC1 [XIMELAGATRAN]

solubility [21]: 0.4 µg/mL (≈ 0.637 µM)
solubility [22]: 0.3 µg/mL (≈ 0.478 µM)
logD [20]: 3.7
solubility [23]: 2.3 µg/mL (≈ 3.66 µM)
Compound: CCCCCCOC(=O)NC(=N)c1ccc(NCc2nc3cc(C(=O)N(CCC(=O)OCC)c4ccccn4)ccc3n2C)cc1 [DABIGATRAN ETEXILATE]

Cmax (Rattus norvegicus [24]): 1740 ng/mL
F (Canis familiaris [25]): 35%
Cmax (Canis familiaris [26]): 3700 ng/mL
pKa [19]: 3.98
AUC (Rattus norvegicus [27]): 38 µg·min/mL
AUC (Canis familiaris [28]): 100 µg·min/mL
solubility [29]: < 10 µg/mL
solubility [30]: 10 µg/mL (≈ 17.3 µM)
AUC (Rattus norvegicus [31]): 203 µg·min/mL
AUC (Canis familiaris [32]): 491 µg·min/mL
Cmax (Canis familiaris [33]): 2100 ng/mL
Cmax (Rattus norvegicus [34]): 440 ng/mL
F (Rattus norvegicus [35]): 13%
logD [20]: 1.74
solubility [36]: 550 µg/mL (≈ 952 µM)
Compound: CCOC(=O)CN[C@H](C(=O)N1CCC[C@H]1C(=O)NCc1ccc(/C(N)=N/O)s1)C(c1ccccc1)c1ccccc1

Ki (Trypsin): 1.99 µM
Ki [3]: 87.8 µM
Ki (Plasminogen): 257 µM
Ki (Coagulation factor X): 53 µM
Compound: CC1CNc2c(cccc2S(=O)(=O)N[C@@H](CCCNC(=N)N)C(=O)N2CC[C@@H](C)C[C@@H]2C(=O)O)C1 (stereo partly specified) [ARGATROBAN]

From ChEMBL document CHEMBL2417538, “Antithrombotic effects of LB30870, a potent, orally active, selective and direct thrombin inhibitor, and pharmacokinetics of its prodrug” (Bioorg Med Chem Lett, 2013)
